Assay results reported in PubChem BioAssay (NCI).
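Cultured in 96-well plates, cells were exposed to test compound for 48 hours across five concentrations. GI50: concentration for 50% inhibition of growth. TGI: concentration producing complete growth inhibition.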

Tests used:
Experiment in all cases: NCI anticancer screen, dose series, 48 h
HL-60(TB) leukemia = system: HL-60(TB) leukemia
HT29 colon = system: HT29 colon
KM12 colon = system: KM12 colon
RPMI-8226 leukemia = system: RPMI-8226 leukemia
RXF 393 renal = system: RXF 393 renal
SF-295 CNS = system: SF-295 CNS
SK-MEL-2 melanoma = system: SK-MEL-2 melanoma
SN12C renal = system: SN12C renal
SNB-19 CNS = system: SNB-19 CNS
MALME-3M melanoma = system: MALME-3M melanoma

Structure (SMILES) | TGI (HL-60(TB) leukemia) [µM] | TGI (HT29 colon) [µM] | TGI (KM12 colon) [µM] | TGI (RPMI-8226 leukemia) [µM] | TGI (RXF 393 renal) [µM] | TGI (SF-295 CNS) [µM] | TGI (SK-MEL-2 melanoma) [µM] | TGI (SN12C renal) [µM] | TGI (SNB-19 CNS) [µM] | GI50 (HL-60(TB) leukemia) [µM] | GI50 (HT29 colon) [µM] | GI50 (KM12 colon) [µM] | GI50 (MALME-3M melanoma) [µM] | TGI (MALME-3M melanoma) [µM] | GI50 (RPMI-8226 leukemia) [µM] | GI50 (SF-295 CNS) [µM] | GI50 (SK-MEL-2 melanoma) [µM] | GI50 (SN12C renal) [µM] | GI50 (SNB-19 CNS) [µM]
O=C(Nc1ccc(Cl)cc1Cl)C(=O)C(C(=O)c1ccc2ccccc2c1)C1OC(=O)c2ccccc21 (stereo not drawn) | 23.9 | 33.1 | 31.9 | > 100 | 11.7 | 19.7 | 31.7 | 30.7 | 22.1 | – | – | – | – | – | – | – | – | – | –
O=C([CH-]C(=O)c1ccccc1)c1ccccc1.O=C([CH-]C(=O)c1ccccc1)c1ccccc1.O=C([CH-]C(=O)c1ccccc1)c1ccccc1.[Nd+3].[OH3+] | 4.99 | 16.1 | 37.9 | 26.4 | – | 13.5 | 15.6 | 68.8 | 29.1 | 1.5 | 4.64 | 6.02 | 9.41 | 36.4 | 3.47 | 2.07 | 3.97 | 11.1 | 4.52
CC1(C)C(=O)C(C)(C)C1=NN | > 100 | > 100 | > 100 | > 100 | > 100 | > 100 | – | > 100 | > 100 | – | – | – | – | > 100 | – | – | – | – | –
CCOC(=O)C1=C(C(=O)c2ccc(C)cc2)C(c2cccc([N+](=O)[O-])c2)C(C(=O)c2ccc(C)cc2)=C(C(=O)OCC)N1 | 96.7 | 28.7 | 25.4 | – | 68.6 | 32.1 | > 100 | 32.4 | 25.9 | – | – | – | – | 66.4 | – | – | – | – | –
O=C(c1ccccc1)C1CCCCN1C(=O)c1ccccc1 (stereo not drawn) | > 100 | – | > 100 | > 100 | > 100 | – | > 100 | > 100 | > 100 | – | – | – | – | > 100 | – | – | – | – | –
